Values quoted from earlier work, collected in patent publication US12156855B2, “Infusion dosage form of norepinephrine” (Sun Pharmaceutical Industries Limited, priority 2019, dated 2024).

Oc1cc2c(cc1O)C(O)CNC2 (centres unmarked) [impurity of Formula I, 1,2,3,4-tetrahydroisoquinoline-4,6,7-triol]
reported pharmacological action (Hans Aaron Bates, J. Org. Chem. 1983): acts as false neurotransmitter

O=Cc1ccc(O)c(O)c1 [3,4 dihydroxybenzaldehyde, 3,4-dihydroxybenzaldehyde]
reported toxicity (heart, ZHANG Cui-ying et al): toxic to the heart
